Where two headings read alike, the source gives them in different places. Values belong to the compound of their own block, whether it stands above or below them.
Assays:
[1] = target: T1, aldose reductase (Rattus norvegicus, UniProt P07943); assay: Inhibition of aldose reductase enzyme activity (Kador and Sharpless method, water soluble extracts of rat lenses); format: biochemical; settings: for IC50: rat lens extract; for inhibition at 0.02 µM: 2.0 × 10^-8 M
T1 construct: water soluble extracts of rat lenses; from tissue; host or cells: rat lens (water-soluble extract)

[2] = system: polyol increase in the sciatic nerve of galactosemic rats; assay: Reduction or inhibition of polyol (galactitol) increase in the sciatic nerve of galactosemic rats; format: in vivo, rat; settings: for ED50: once a day for eight days, 30% galactose diet, sciatic nerve galactitol
Procedure: The compounds according to the invention were tested for their ability to reduce or inhibit polyol increase in the sciatic nerve of galactosemic rats. Rats were fed 30% galactose diet and were administered the compounds at the various doses of 0.4-50 mg/kg once a day for eight days. One day after the final administration (on 9th day), sciatic nerves were removed for galactitol determination. […] The selected control compounds are typical one described in the aforesaid Japanese Unexamined Patent Application Gazette.

[3] = Rattus norvegicus, 192 h, Table 3, read-out: ED50
[4] = Table 1, 3.3 × 10^-8 M, read-out: Inhibition (%)
[5] = Table 1, 10^-7 M, read-out: Inhibition (%)
[6] = Rattus norvegicus, 192 h, Table 4, read-out: ED50
[7] = Table 2, 3.3 × 10^-8 M, read-out: Inhibition (%)
[8] = Table 2, 10^-7 M, read-out: Inhibition (%)
[9] = Table 2, 10^-8 M, read-out: Inhibition (%)
[10] = Table 1, 10^-5 M, read-out: Inhibition (%)

Structure (SMILES): NC(=O)C1CC2(NC(=O)NC2=O)c2cc(F)ccc2O1 (racemic) [A, dl-6-Fluoro-2,3-dihydro-2',5'-dioxo-spiro[4H-1-benzopyran-4,4'-imidazolidine]-2-carboxamide]
inhibition at 0.01 µM [1]: 21%
inhibition at 0.033 µM [1]: 51%
inhibition at 0.1 µM [1]: 80%
ED50 [2, 3]: 3.3 mg/kg

Structure (SMILES): O=C1NC(=O)C2(CC(C(=O)O)Oc3ccc(F)cc32)N1 (racemic) [Example 1, dl-6-fluoro-2,3-dihydro-2',5'-dioxo-spiro[4H-1-benzopyran-4,4'-imidazolidine]-2-carboxylic acid]
potency of the major diastereomer vs minor diastereomer in inhibition of polyol increase ([2]; sciatic nerve of galactosemic rats): higher than that of the minor diastereomer

Structure (SMILES): O=C1NC(=O)C2(CC(CBr)Oc3ccc(F)cc32)N1 (racemic) [G, dl-2-Bromomethyl-6-fluoro-2,3-dihydro-spiro[4H-1-benzopyran-4,4'-imidazolidine]-2',5'-dione]
inhibition at 0.33 µM ([1]; Table 1, 3.3 × 10^-7 M): 70%
inhibition at 0.033 µM [1, 4]: 22%
inhibition at 0.1 µM [1, 5]: 42%
IC50 ([1]; Table 1): 130 nM
ED50 [2, 6]: 7.2 mg/kg

Structure (SMILES): NC(=O)[C@H]1CC2(NC(=O)NC2=O)c2cc(F)ccc2O1 (stereo partly drawn) [B, d-6-Fluoro-2,3-dihydro-2',5'-dioxo-spiro[4H-1-benzopyran-4,4'-imidazolidine]-2-carboxamide]
inhibition at 0.01 µM [1]: 39%
inhibition at 0.033 µM [1]: 80%
inhibition at 0.1 µM [1]: 93%
ED50 [2, 3]: 1.3 mg/kg

Structure (SMILES): NC(=O)C1CC2(NC(=O)NC2=O)c2cc(F)ccc2O1 (stereo not drawn) [C, 1-6-Fluoro-2,3-dihydro-2',5'-dioxo-spiro[4H-1-benzopyran-4,4'-imidazolidine]-2-carboxamide]
inhibition at 10 µM [1]: 27%

Structure (SMILES): O=C1NC(=O)C2(CC(CBr)Oc3ccc(F)cc32)N1 (stereo not drawn) [H, d-2-Bromomethyl-6-fluoro-2,3-dihydro-spiro[4H-1-benzopyran-4,4'-imidazolidine]-2',5'-dione]
inhibition at 0.33 µM ([1]; Table 1, 3.3 × 10^-7 M): 82%
inhibition at 0.033 µM [1, 4]: 35%
inhibition at 0.1 µM [1, 5]: 59%
IC50 ([1]; Table 1): 68 nM
ED50 [2, 6]: 2.2 mg/kg

Structure (SMILES): O=C1NC(=O)C2(CC(CBr)Oc3ccc(F)cc32)N1 (stereo not drawn) [I, 1-2-Bromomethyl-6-fluoro-2,3-dihydro-spiro[4H-1-benzopyran-4,4'-imidazolidine]-2',5'-dione]
inhibition at 3.3 µM ([1]; Table 1, 3.3 × 10^-6): 54%
inhibition at 10 µM [1, 10]: 75%
inhibition at 1 µM ([1]; Table 1, 10^-6 M): 31%
IC50 ([1]; Table 1): 2700 nM

Structure (SMILES): CC(=O)Nc1cc(F)cc2c1O[C@@H](C(N)=O)CC21NC(=O)NC1=O (stereo partly drawn) [P, d-8-Acetamido-6-fluoro-2,3-dihydro-2',5'-dioxo-spiro[4H-1-benzopyran-4,4'-imidazolidine]-2-carboxamide]
inhibition at 0.02 µM ([1]; Table 2): 56%
inhibition at 0.033 µM [1, 7]: 69%
inhibition at 0.01 µM [1, 9]: 30%
IC50 ([1]; Table 2): 18 nM

Structure (SMILES): O=C1NC(=O)C2(CCOc3ccc(F)cc32)N1 (stereo not drawn) [Q, d1-6-Fluoro-2,3-dihydro-spiro[4H-1-benzopyran-4,4'-imidazolidine]-2',5'-dione, reference compound]
inhibition at 3.3 µM ([1]; Table 1, 3.3 × 10^-6): 85%
inhibition at 0.33 µM ([1]; Table 1, 3.3 × 10^-7 M): 46%
inhibition at 0.033 µM [1, 4]: 10%
inhibition at 1 µM ([1]; Table 1, 10^-6 M): 71%
inhibition at 0.1 µM [1, 5]: 17%
ED50 [2, 6]: 31.5 mg/kg
ED50 ([2]; Table 3): 36.6 mg/kg

Structure (SMILES): O=C1NC(=O)C2(CCOc3ccc(F)cc32)N1 (stereo not drawn) [R, d-6-Fluoro-2,3-dihydro-spiro[4H-1-benzopyran-4,4'-imidazolidine]-2',5'-dione, reference compound]
Inhibition (%) ([1]; Table 1, 3.3 × 10^-6): 88%
Inhibition (%) ([1]; Table 1, 3.3 × 10^-7 M): 61%
Inhibition (%) ([1]; Table 1, 3.3 × 10^-8 M): 15%
Inhibition (%) ([1]; Table 1, 10^-6 M): 80%
Inhibition (%) ([1]; Table 1, 10^-7 M): 34%
inhibition at 0.33 µM ([1]; Table 2, 3.3 × 10^-7 M): 59%
inhibition at 0.033 µM [1, 7]: 24%
inhibition at 1 µM ([1]; Table 2, 10^-6 M): 76%
inhibition at 0.1 µM [1, 8]: 29%
ED50 ([2]; Table 3): 18.0 mg/kg

Structure (SMILES): O=C1NC(=O)C2(CCOc3ccc(F)cc32)N1 (stereo not drawn) [S, 1-6-Fluoro-2,3-dihydro-spiro[4H-1-benzopyran-4,4'-imidazolidine]-2',5'-dione, reference compound]
inhibition at 10 µM [1, 10]: 32%

More lines, main results first:

inhibition at 0.33 µM ([1]; Table 1, 3.3 × 10^-7 M): 78%
inhibition at 0.033 µM [1, 4]: 28%
inhibition at 0.1 µM [1, 5]: 53%
IC50 ([1]; Table 1): 90 nM
Structure (SMILES): O=C1NC(=O)C2(CC(CCl)Oc3ccc(F)cc32)N1 (racemic) [D, dl-2-Chloromethyl-6-fluoro-2,3-dihydro-spiro[4H-1-benzopyran-4,4'-imidazolidine]-2',5'-dione]
ED50 [2, 6]: 1.3 mg/kg

inhibition at 0.033 µM [1, 7]: 50%
inhibition at 0.1 µM [1, 8]: 88%
inhibition at 0.01 µM [1, 9]: 15%
IC50 ([1]; Table 2): 31 nM
Structure (SMILES): NC(=O)C1CC2(NC(=O)NC2=O)c2cc(F)cc([N+](=O)[O-])c2O1 (racemic) [L, dl-6-Fluoro-2,3-dihydro-8-nitro-2',5'-dioxo-spiro[4H-1-benzopyran-4,4'-imidazolidine]-2-carboxamide]

inhibition at 0.033 µM [1, 7]: 40%
inhibition at 0.1 µM [1, 8]: 74%
inhibition at 0.01 µM [1, 9]: 13%
IC50 ([1]; Table 2): 44 nM
Structure (SMILES): NC(=O)C1CC2(NC(=O)NC2=O)c2cc(F)cc(N)c2O1 (racemic) [M, dl-8-Amino-6-fluoro-2,3-dihydro-2',5'-dioxo-spiro[4H-1-benzopyran-4,4'-imidazolidine]-2-carboxamide]

inhibition at 0.33 µM ([1]; Table 2, 3.3 × 10^-7 M): 81%
inhibition at 0.033 µM [1, 7]: 30%
inhibition at 0.1 µM [1, 8]: 59%
IC50 ([1]; Table 2): 76 nM
Structure (SMILES): O=C1NC(=O)C2(CC(CCl)Oc3c([N+](=O)[O-])cc(F)cc32)N1 (racemic) [N, dl-2-Chloromethyl-6-fluoro-2,3-dihydro-8-nitro-spiro[4H-1-benzopyran-4,4'-imidazolidine]-2',5'-dione]

inhibition at 0.33 µM ([1]; Table 2, 3.3 × 10^-7 M): 68%
inhibition at 1 µM ([1]; Table 2, 10^-6 M): 85%
inhibition at 0.1 µM [1, 8]: 38%
IC50 ([1]; Table 2): 170 nM
Structure (SMILES): Nc1cc(F)cc2c1OC(CCl)CC21NC(=O)NC1=O (racemic) [O, dl-8-Amino-2-chloromethyl-6-fluoro-2,3-dihydro-spiro[4H-1-benzopyran-4,4'-imidazolidine]-2',5'-dione]

inhibition at 0.033 µM [1, 4]: 38%
inhibition at 0.1 µM [1, 5]: 66%
inhibition at 0.01 µM ([1]; Table 1, 10^-8 M, read-out: Inhibition (%)): 21%
IC50 ([1]; Table 1): 47 nM
Structure (SMILES): O=C1NC(=O)C2(CC(CCl)Oc3ccc(F)cc32)N1 (stereo not drawn) [Compound E, d-2-Chloromethyl-6-fluoro-2,3-dihydro-spiro[4H-1-benzopyran-4,4'-imidazolidine]-2',5'-dione]
ED50 [2, 6]: 0.6 mg/kg

inhibition at 3.3 µM ([1]; Table 1, 3.3 × 10^-6): 52%
inhibition at 10 µM [1, 10]: 74%
inhibition at 1 µM ([1]; Table 1, 10^-6 M): 28%
IC50 ([1]; Table 1): 2900 nM
Structure (SMILES): O=C1NC(=O)C2(CC(CCl)Oc3ccc(F)cc32)N1 (stereo not drawn) [F, 1-2-Chloromethyl-6-fluoro-2,3-dihydro-spiro[4H-1-benzopyran-4,4'-imidazolidine]-2',5'-dione]

inhibition at 0.02 µM ([1]; Table 2): 69%
inhibition at 0.033 µM [1, 7]: 82%
inhibition at 0.01 µM [1, 9]: 35%
IC50 ([1]; Table 2): 14 nM
Structure (SMILES): NC(=O)[C@H]1CC2(NC(=O)NC2=O)c2cc(F)cc([N+](=O)[O-])c2O1 (stereo partly drawn) [J, d-6-Fluoro-2,3-dihydro-8-nitro-2',5'-dioxo-spiro[4H-1-benzopyran-4,4'-imidazolidine]-2-carboxamide]

inhibition at 0.033 µM [1, 7]: 60%
inhibition at 0.1 µM [1, 8]: 70%
inhibition at 0.01 µM [1, 9]: 27%
IC50 ([1]; Table 2): 25 nM
Structure (SMILES): NC(=O)[C@H]1CC2(NC(=O)NC2=O)c2cc(F)cc(N)c2O1 (stereo partly drawn) [K, d-8-Amino-6-fluoro-2,3-dihydro-2',5'-dioxo-spiro[4H-1-benzopyran-4,4'-imidazolidine]-2-carboxamide]
